From patent US20250163043A1 (TRANSTHERA SCIENCES (NANJING), INC., priority 2021, published 2025)
pIC50: −log10 of the molar value.

Experiments:
[1] = test system: MV-4-11 (human myelomonocytic leukemia cells); assay: CCK-8 cell proliferation assay, MV-4-11; format: cell-based; details: MV4-11, 24 h incubation, 11 concentrations from 5000 nM, 3-fold, read-out: MV-4-11 cell proliferation IC50 (class)
Experimental: Test samples: the compounds of the present invention, having structures shown above.
MV-4-11 (human myelomonocytic leukemia cells) and NCI-H929 (human myeloma cells).
The compounds were dissolved in DMSO and diluted 3-fold in the 96-well plate to obtain stock solutions with 11 concentration gradients. Each cell was inoculated into a 96-well plate, and the diluted compound stock solution was added to the 96-well plate to obtain a series of 11 concentration gradients of compound solutions with final concentrations of 5000 nM starting and 3-fold gradient decreasing, wherein the final DMSO content was […]. There was a medium containing 1‰ DMSO in the negative control well. The treated cells were incubated at 37° C. with 5% CO2 and 95% humidity, wherein MV-4-11 were incubated for 24 h and NCI-H929 for 72 h. After incubation was completed, each well was added with 10 μL of CCK-8 reagent, incubated for 1-3 h at room temperature and placed in the microplate reader, and the absorbance was read at 450 nm.
The inhibition rate was calculated according to the following formula: […]
ODcmpd: compound absorbance; ODpositive: average value of the absorbance of positive control without compound; ODvehicle: average value of the absorbance of solvent vehicle control.
IC50 values were fitted using GraphPad 7.0 based on inhibition rates of compounds at different concentrations.

CDK9/CycT1 = CDK9/CycT1 (Homo sapiens, UniProt P50750); assay: ADP-Glo kinase assay on CDK enzymatic activity, CDK9/CycT1; format: biochemical; details: 10 concentrations from 10 μM, 4-fold, 60 min room temperature
How it was run: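 Enzyme activity was measured by ADP-Glo luminescence following 60 min turnover of CDK tide peptide at room temperature. Compounds spanned ten 4-fold dilutions from 10 μM final, with 0.5% DMSO.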

Chain of CDK9/CycT1 (P50750 whole entry): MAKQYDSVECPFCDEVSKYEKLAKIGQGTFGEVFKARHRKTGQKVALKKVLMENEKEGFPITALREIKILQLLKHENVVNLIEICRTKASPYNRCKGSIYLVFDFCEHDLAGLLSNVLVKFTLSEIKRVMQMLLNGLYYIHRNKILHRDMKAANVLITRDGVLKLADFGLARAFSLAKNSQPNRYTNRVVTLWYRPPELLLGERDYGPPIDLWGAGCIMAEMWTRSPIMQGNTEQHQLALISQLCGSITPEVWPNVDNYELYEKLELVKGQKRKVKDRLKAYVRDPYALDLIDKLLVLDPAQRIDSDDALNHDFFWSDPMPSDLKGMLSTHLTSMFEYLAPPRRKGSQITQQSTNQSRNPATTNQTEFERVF
Chain of CDK9/CycT1 (O60563 whole entry partner): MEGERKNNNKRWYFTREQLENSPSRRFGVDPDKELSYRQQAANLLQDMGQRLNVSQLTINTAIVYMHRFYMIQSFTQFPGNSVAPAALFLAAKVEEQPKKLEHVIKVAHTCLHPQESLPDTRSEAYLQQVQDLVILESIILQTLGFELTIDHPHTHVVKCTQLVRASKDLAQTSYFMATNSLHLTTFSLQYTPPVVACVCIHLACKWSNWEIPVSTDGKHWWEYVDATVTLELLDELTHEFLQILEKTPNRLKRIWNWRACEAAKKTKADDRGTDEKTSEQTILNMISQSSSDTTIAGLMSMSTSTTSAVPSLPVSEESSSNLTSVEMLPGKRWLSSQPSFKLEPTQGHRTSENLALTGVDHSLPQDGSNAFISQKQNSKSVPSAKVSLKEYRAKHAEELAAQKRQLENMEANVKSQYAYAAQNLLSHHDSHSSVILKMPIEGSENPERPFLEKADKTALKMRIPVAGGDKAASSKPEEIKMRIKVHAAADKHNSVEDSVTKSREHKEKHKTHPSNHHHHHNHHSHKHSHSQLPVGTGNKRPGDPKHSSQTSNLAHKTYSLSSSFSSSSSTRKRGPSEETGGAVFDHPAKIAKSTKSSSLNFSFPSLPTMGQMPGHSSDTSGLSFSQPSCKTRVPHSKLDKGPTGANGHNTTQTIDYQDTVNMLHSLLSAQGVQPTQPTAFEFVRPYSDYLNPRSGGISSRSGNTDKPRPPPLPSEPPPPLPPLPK

pIC50 [1]	IC50 (CDK9/CycT1)	SMILES
< 6.00		CC(=O)N[C@@H]1CCC[C@H](C(=O)Nc2ncc3cc(C#N)nc(NC(C)C)c3n2)C1 [Compound 3, (1S,3R)-3-acetamido-N-(6-cyano-8-(isopropylamino)pyrido[3,4-d]pyrimidin-2-yl)cyclohexane-1-carboxamide]
< 6.00		CC(=O)N[C@@H]1CCC[C@H](C(=O)Nc2ncc3cc(S(C)(=O)=O)nc(NC(C)C)c3n2)C1 [Compound 5, (1S,3R)-3-acetamido-N-(8-(isopropylamino)-6-(methylsulfonyl)pyrido[3,4-d]pyrimidin-2-yl)cyclohexane-1-carboxamide]
< 6.00		CC(=O)N1CCC[C@H](C(=O)Nc2ncc3cc(C#N)nc(NC(C)C)c3n2)C1 [Compound 6, (S)-1-acetyl-N-(6-cyano-8-(isopropylamino)pyrido[3,4-d]pyrimidin-2-yl)piperidine-3-carboxamide]
< 6.00	44 nM	CC(=O)N[C@@H]1CCC[C@H](C(=O)Nc2ncc3cc(C(F)F)nc(NC(C)C)c3n2)C1 [Compound 7, (1S,3R)-3-acetamido-N-(6-(difluoromethyl)-8-(isopropylamino)pyrido[3,4-d]pyrimidin-2-yl)cyclohexane-1-carboxamide]
< 6.00		CC(=O)N[C@@H]1CCC[C@H](C(=O)Nc2ncc3cc(C)nc(NC(C)C)c3n2)C1 [Compound 8, (1S,3R)-3-acetamido-N-(8-(isopropylamino)-6-methylpyrido[3,4-d]pyrimidin-2-yl)cyclohexane-1-carboxamide]
< 6.00		CCc1cc2cnc(NC(=O)[C@H]3CCC[C@@H](NC(C)=O)C3)nc2c(NC(C)C)n1 [Compound 9, (1S,3R)-3-acetamido-N-(6-ethyl-8-(isopropylamino)pyrido[3,4-d]pyrimidin-2-yl)cyclohexane-1-carboxamide]
< 6.00	46 nM	C=Cc1cc2cnc(NC(=O)[C@H]3CCC[C@@H](NC(C)=O)C3)nc2c(NC(C)C)n1 [Compound 10, (1S,3R)-3-acetamido-N-(8-(isopropylamino)-6-vinylpyrido[3,4-d]pyrimidin-2-yl)cyclohexane-1-carboxamide]
< 6.00		CNc1cc2cnc(NC(=O)[C@H]3CCC[C@@H](NC(C)=O)C3)nc2c(NC(C)C)n1 [Compound 11, (1S,3R)-3-acetamido-N-(8-(isopropylamino)-6-(methylamino)pyrido[3,4-d]pyrimidin-2-yl)cyclohexane-1-carboxamide]
< 6.00		COc1cc2cnc(NC(=O)[C@H]3CCC[C@@H](NC(C)=O)C3)nc2c(NC(C)C)n1 [Compound 12, (1S,3R)-3-acetamido-N-(8-(isopropylamino)-6-methoxypyrido[3,4-d]pyrimidin-2-yl)cyclohexane-1-carboxamide]
< 6.00		CC(=O)N[C@@H]1CCC[C@H](C(=O)Nc2cc3c(N4CCOCC4)nc(C#N)cc3cn2)C1 [Compound 21, (1S,3R)-3-acetamido-N-(7-cyano-5-morpholino-2,6-naphthyridin-3-yl)cyclohexane-1-carboxamide]
6.00 to 6.40		CC(C)Nc1nc(C#N)cc2cnc(N[C@H]3CCC[C@@H](N)C3)cc12 [Compound 40, 7-(((1S,3R)-3-aminocyclohexyl)amino)-1-(isopropylamino)-2,6-naphthyridine-3-carbonitrile]
6.00 to 6.40		CC(C)Cc1nc(C#N)cc2cnc(N[C@H]3CCCNC3)cc12 [Compound 108, (S)-1-isobutyl-7-(piperidin-3-ylamino)-2,6-naphthyridine-3-carbonitrile]
6.00 to 6.40	17 nM	CC(C)Nc1nc(C#N)cc2cnc(N[C@H]3CCNC3)nc12 [Compound 112, (S)-8-(isopropylamino)-2-(pyrrolidin-3-ylamino)pyrido[3,4-d]pyrimidine-6-carbonitrile]
6.00 to 6.40	9 nM	CC(C)Nc1nc(C#N)cc2cnc(N[C@@H]3CCNC3)nc12 [Compound 113, (R)-8-(isopropylamino)-2-(pyrrolidin-3-ylamino)pyrido[3,4-d]pyrimidine-6-carbonitrile]
< 6.00	6 nM	CC(C)Nc1nc(C#N)cc2cnc(N[C@@H]3CCCOC3)nc12 [Compound 117, (R)-8-(isopropylamino)-2-((tetrahydro-2H-pyran-3-yl)amino)pyrido[3,4-d]pyrimidine-6-carbonitrile]
< 6.00	12 nM	CC(C)Nc1nc(C#N)cc2cnc(N[C@H]3CCOC3)nc12 [Compound 118, (S)-8-(isopropylamino)-2-((tetrahydrofuran-3-yl)amino)pyrido[3,4-d]pyrimidine-6-carbonitrile]

pIC50 [1]	IC50 (CDK9/CycT1)	SMILES
< 6.00	6 nM	CC(C)Nc1nc(C#N)cc2cnc(N[C@@H]3CCOC3)nc12 [Compound 119, (R)-8-(isopropylamino)-2-((tetrahydrofuran-3-yl)amino)pyrido[3,4-d]pyrimidine-6-carbonitrile]
6.00 to 6.40	14 nM	CC(C)Nc1nc(C#N)cc2cnc(NC3CCCS(=O)(=O)C3)nc12 (centres unmarked) [Compound 121, 2-((1,1-dioxidotetrahydro-2H-thiopyran-3-yl)amino)-8-(isopropylamino)pyrido[3,4-d]pyrimidine-6-carbonitrile]
< 6.00	9 nM	CC(C)Nc1nc(C#N)cc2cnc(N[C@H]3CC[C@@H](O)CC3)nc12 [Compound 125, 2-(((1s,4s)-4-hydroxycyclohexyl)amino)-8-(isopropylamino)pyrido[3,4-d]pyrimidine-6-carbonitrile]
< 6.00	7 nM	CC(C)Nc1nc(C#N)cc2cnc(NC3CNC3)nc12 [Compound 129, 2-(azetidin-3-ylamino)-8-(isopropylamino)pyrido[3,4-d]pyrimidine-6-carbonitrile]
6.00 to 6.40	12 nM	CC(C)Nc1nc(C#N)cc2cnc(N[C@@H]3CCCNCC3)nc12 [Compound 132, (R)-2-(azepan-4-ylamino)-8-(isopropylamino)pyrido[3,4-d]pyrimidine-6-carbonitrile]
< 6.00	10 nM	CC(C)Nc1nc(C#N)cc2cnc(N[C@H]3CC[C@@H](N)CC3)nc12 [Compound 137, 2-(((1s,4s)-4-aminocyclohexyl)amino)-8-(isopropylamino)pyrido[3,4-d]pyrimidine-6-carbonitrile]
< 6.00	12 nM	CC(C)Nc1nc(C#N)cc2cnc(NC3CCCCC3O)cc12 (centres unmarked) [Compound 143, 7-((2-hydroxycyclohexyl)amino)-1-(isopropylamino)-2,6-naphthyridine-3-carbonitrile]
< 6.00	9 nM	CC(C)Nc1nc(C#N)cc2cnc(NC3CCCC3N)cc12 (centres unmarked) [Compound 146, 7-((2-aminocyclopentyl)amino)-1-(isopropylamino)-2,6-naphthyridine-3-carbonitrile]
6.00 to 6.40	3 nM	CC(C)Nc1nc(C#N)cc2cnc(N[C@H]3CCC[C@H]3N)cc12 [Compound 158, 7-(((1S,2R)-2-aminocyclopentyl)amino)-1-(isopropylamino)-2,6-naphthyridine-3-carbonitrile]
< 6.00	19 nM	CC(C)(C)Nc1nc(C#N)cc2cnc(NC(=O)[C@H]3CCCNC3)cc12 [Compound 177, (S)—N-(5-(tert-butylamino)-7-cyano-2,6-naphthyridin-3-yl)piperidine-3-carboxamide]
6.00 to 6.40	7 nM	CC(C)(C)Nc1nc(C#N)cc2cnc(NC(=O)[C@@H]3CCCNC3)cc12 [Compound 178, (R)—N-(5-(tert-butylamino)-7-cyano-2,6-naphthyridin-3-yl)piperidine-3-carboxamide]
< 6.00	15 nM	N#Cc1cc2cnc(N[C@H]3CCCNC3)cc2c(C2CC2)n1 [Compound 194, (S)-1-cyclopropyl-7-(piperidin-3-ylamino)-2,6-naphthyridine-3-carbonitrile]
< 6.00		Cc1nc(C#N)cc2cnc(N[C@H]3CCCNC3)cc12 [Compound 196, (S)-1-methyl-7-(piperidin-3-ylamino)-2,6-naphthyridine-3-carbonitrile]
< 6.00	14 nM	N#Cc1cc2cnc(N[C@H]3CCCNC3)cc2c(OC2CC2)n1 [Compound 197, (S)-1-cyclopropoxy-7-(piperidin-3-ylamino)-2,6-naphthyridine-3-carbonitrile]
6.00 to 6.40	7 nM	CCNc1nc(C#N)cc2cnc(N[C@H]3C[C@](C)(N)C3)cc12 [Compound 208, 7-(((1r,3r)-3-amino-3-methylcyclobutyl)amino)-1-(ethylamino)-2,6-naphthyridine-3-carbonitrile]

SMILES	pIC50 [1]	IC50 (CDK9/CycT1)
CC(C)Nc1nc(C#N)cc2cnc(N[C@@H]3C[C@H]4COC[C@@H](C3)N4)nc12 [Compound 139, 2-(((1R,5S,7r)-3-oxa-9-azabicyclo[3.3.1]nonan-7-yl)amino)-8-(isopropylamino)pyrido[3,4-d]pyrimidine-6-carbonitrile]	< 6.00	6 nM
